From publication PMC12521730, “Quantitative dual-isotope preclinical SPECT/CT imaging and biodistribution of the mercury-197m/g theranostic pair with [^197m/gHg]HgCl2 and a [^197m/gHg]Hg-tetrathiol complex as a platform for radiopharmaceutical development” (EJNMMI Radiopharmacy and Chemistry, 2025)

Experiment: Ex vivo biodistribution (gamma counter)
Type: in vivo, healthy male C57BL/6 mice
Conditions: 2 h post administration
Procedure: For animal injection, the tracer was prepared at high molar activity. Radiolabeling of H4Tetrathiol (10^–2 M in DMSO; 40 μL for imaging, 20 μL for bioD) (or DMSO, for [^197m/gHg]HgCl2 mice) with [^197m/gHg]HgCl2 (imaging: 26.7 MBq total m + g, 62 μL; bioD: 13.04 MBq total m + g, 31 μL) was performed in a mixture of ammonium acetate buffer (1 M; pH 7; 198 μL for imaging or 149 μL for bioD) and 6 M NaOH (72 μL or 38 μL required to achieve a pH of 7.5 after addition of activity, for imaging or BioD labeling, respectively). The reaction was allowed to stand for 1 h at 37 °C and quantitative (> 99%) non-isolated percentage radiochemical yield (%RCY) was confirmed via the iTLC methods mentioned above. Further, 100 µL of the reaction was diluted with 50 µL of PBS Tween-20 (0.01 M sodium phosphate, 0.15 M NaCl, 0.05% Tween-20) for imaging mice, or 50 µL of the reaction was diluted with 100 µL of PBS Tween-20 for BioD mice. The tracers were prepared immediately before injection to avoid radiolysis and minimize the tracer loss to any surfaces due to its lipophilicity. The injected doses of each isomer, ^197mHg and ^197gHg, were quantified by measuring an aliquot of known volume of each tracer preparation via HPGe gamma spectroscopy and decay corrected for time of injection using the Eqs. (1) and (2).
The study was conducted in compliance with the guidelines set by the Canadian Council on Animal Care (CCAC) and approved by the Animal Care Committee (ACC) at the University of British Columbia (A20-0132). A total of eight healthy male C57BL/6 mice weighing approximately 30 g for group 1 and 25 g for group 2 were used in the study. The mice were divided into two experimental groups: group 1 (n = 4) received free [^197m/gHg]HgCl2, while group 2 (n = 4) received [^197m/gHg]Hg-Tetrathiol. Within each group, one mouse was allocated for imaging, while the rest were designated for ex vivo biodistribution analysis. For SPECT imaging, the designated mice were anesthetized using isoflurane via a precision vaporizer. […] Once anesthetized, each imaging mouse received an intravenous (IV) injection via the lateral tail vein of 150 μL of [^197m/gHg]HgCl2 (0.492 MBq ^197mHg + 3.171 MBq ^197gHg) or [^197m/gHg]Hg-Tetrathiol (0.899 MBq ^197mHg + 4.230 MBq ^197gHg) in PBS Tween-20 (0.01 M Na Phosphate, 0.15 M NaCl, 0.05% Tween-20).
Mice received an IV injection of [^197m/gHg]HgCl2 (0.275 MBq ^197mHg + 1.758 MBq ^197gHg, 150 μL) or [^197m/gHg]Hg-Tetrathiol (0.384 MBq ^197mHg + 1.733 MBq ^197gHg, 150 μL) (n = 3 per group) via the lateral tail vein using a Tailveiner restrainer. After the injection, the mice were returned to their experimental cages and allowed unrestricted movement. Biodistribution studies were conducted 2 h after administration. Mice were humanely euthanized with an overdose of isoflurane followed by cardiac puncture to collect blood pool activity. The organs of interest were fully extracted, cleaned of blood without rinsing, weighed, and analysed for radioactivity using a calibrated gamma counter with the 55–93 keV energy window for ^197gHg and the 110–160 keV energy window for ^197mHg (Packard Cobra II, Perkin Elmer, Waltham, MA, USA). The stomach and intestines were carefully cleaned prior to analysis to remove residual contents. For tissues and fluids that could not be fully removed (muscle, blood and bone) activity values were extrapolated based on standardised organ weights for age- and sex-matched mice tables to ensure accurate normalization (Davies and Morris [1993]; Foster et al. [2014]). The stomach and whole intestines were cleaned before analysis. The radioactivity measurements were decay corrected for time of injection using the Eqs. (1) and (2). The results are reported as the percentage of the injected activity per gram of tissue (%IA/g) and percentage of the injected activity per tissue (%IA/organ).

With `O=C(CC[S-])OCC(COC(=O)CC[S-])(COC(=O)CC[S-])COC(=O)CC[S-].[Hg+2]` [[^197m/gHg]Hg-Tetrathiol] the “Animal 4 (%IA/g) g: heart” value (Hg-197g) was 0.72 %IA/g, the “Animal 4 (%IA/g) g: kidneys” value (Hg-197g) was 2.58 %IA/g and the “Animal 4 (%IA/g) g: large intestine” value (Hg-197g) was 0.04 %IA/g. The “Animal 4 (%IA/g) g: liver” value (Hg-197g) was 460.16 %IA/g, the “Animal 4 (%IA/g) g: lungs” value (Hg-197g) was 6.68 %IA/g and the “Animal 4 (%IA/g) g: muscle” value (Hg-197g) was 0.02 %IA/g. For the same compound, the “Animal 4 (%IA/g) g: pancreas” value (Hg-197g) was 0.05 %IA/g, the “Animal 4 (%IA/g) g: small intestine” value (Hg-197g) was 0.13 %IA/g and the “Animal 4 (%IA/g) g: spleen” value (Hg-197g) was 73.76 %IA/g. The “Animal 4 (%IA/g) g: stomach” value (Hg-197g) was 0.12 %IA/g, the “Animal 4 (%IA/g) g: tail” value (Hg-197g) was 5.66 %IA/g and the “Animal 4 (%IA/g) g: urine” value (Hg-197g) was 0.03 %IA/g. For the same compound, the “Average (%IA/Organ): bladder” value (Hg-197g) was 0.00 %IA/Organ, the “Average (%IA/Organ): blood” value (Hg-197g) was 0.16 %IA/Organ and the “Average (%IA/Organ): bone” value (Hg-197g) was 2.70 %IA/Organ. For the same compound, the “Average (%IA/Organ): brain” value (Hg-197g) was 0.01 %IA/Organ, the “Average (%IA/Organ): feces” value (Hg-197g) was 0.00 %IA/Organ and the “Average (%IA/Organ): heart” value (Hg-197g) was 0.09 %IA/Organ. The “Average (%IA/Organ): kidneys” value (Hg-197g) was 1.13 %IA/Organ, the “Average (%IA/Organ): large intestine” value (Hg-197g) was 0.02 %IA/Organ and the “Average (%IA/Organ): lungs” value (Hg-197g) was 0.97 %IA/Organ. For the same compound, the “Average (%IA/Organ): muscle” value (Hg-197g) was 0.19 %IA/Organ, the “Average (%IA/Organ): pancreas” value (Hg-197g) was 0.01 %IA/Organ and the “Average (%IA/Organ): small intestine” value (Hg-197g) was 0.02 %IA/Organ. The “Average (%IA/Organ): spleen” value (Hg-197g) was 4.17 %IA/Organ, the “Average (%IA/Organ): stomach” value (Hg-197g) was 0.04 %IA/Organ and the “Average (%IA/Organ): tail” value (Hg-197g) was 1.05 %IA/Organ. The “Average (%IA/Organ): urine” value (Hg-197g) was 0.00 %IA/Organ, the “Average Hg-197g (%IA/g): bladder” value (Hg-197g) was 0.049 %IA/g and the “Average Hg-197g (%IA/g): blood” value (Hg-197g) was 0.11 %IA/g. The “Average Hg-197g (%IA/g): bone” value (Hg-197g) was 1.42 %IA/g, the “Average Hg-197g (%IA/g): brain” value (Hg-197g) was 0.025 %IA/g and the “Average Hg-197g (%IA/g): feces” value (Hg-197g) was 0.023 %IA/g. The “Average Hg-197g (%IA/g): heart” value (Hg-197g) was 0.71 %IA/g, the “Average Hg-197g (%IA/g): kidneys” value (Hg-197g) was 2.96 %IA/g and the “Average Hg-197g (%IA/g): large intestine” value (Hg-197g) was 0.079 %IA/g. The “Average Hg-197g (%IA/g): liver” value (Hg-197g) was 202.37 %IA/g, the “Average Hg-197g (%IA/g): lungs” value (Hg-197g) was 7.10 %IA/g and the “Average Hg-197g (%IA/g): muscle” value (Hg-197g) was 0.017 %IA/g. The “Average Hg-197g (%IA/g): pancreas” value (Hg-197g) was 0.058 %IA/g, the “Average Hg-197g (%IA/g): small intestine” value (Hg-197g) was 0.11 %IA/g and the “Average Hg-197g (%IA/g): spleen” value (Hg-197g) was 64.43 %IA/g. For the same compound, the “Average Hg-197g (%IA/g): stomach” value (Hg-197g) was 0.37 %IA/g, the “Average Hg-197g (%IA/g): tail” value (Hg-197g) was 2.18 %IA/g and the “Average Hg-197g (%IA/g): urine” value (Hg-197g) was 0.029 %IA/g. For the same compound, the “Animal 1 (%IA/g) m: bladder” value (Hg-197m) was 0.05 %IA/g, the “Animal 1 (%IA/g) m: blood” value (Hg-197m) was 0.10 %IA/g and the “Animal 1 (%IA/g) m: bone” value (Hg-197m) was 2.09 %IA/g. The “Animal 1 (%IA/g) m: brain” value (Hg-197m) was 0.04 %IA/g, the “Animal 1 (%IA/g) m: feces” value (Hg-197m) was 0.04 %IA/g and the “Animal 1 (%IA/g) m: heart” value (Hg-197m) was 0.47 %IA/g. For the same compound, the “Animal 1 (%IA/g) m: kidneys” value (Hg-197m) was 5.53 %IA/g, the “Animal 1 (%IA/g) m: large intestine” value (Hg-197m) was 0.14 %IA/g and the “Animal 1 (%IA/g) m: lungs” value (Hg-197m) was 9.10 %IA/g. The “Animal 1 (%IA/g) m: muscle” value (Hg-197m) was 0.01 %IA/g, the “Animal 1 (%IA/g) m: pancreas” value (Hg-197m) was 0.06 %IA/g and the “Animal 1 (%IA/g) m: small intestine” value (Hg-197m) was 0.16 %IA/g. The “Animal 1 (%IA/g) m: spleen” value (Hg-197m) was 74.83 %IA/g, the “Animal 1 (%IA/g) m: stomach” value (Hg-197m) was 0.19 %IA/g and the “Animal 1 (%IA/g) m: tail” value (Hg-197m) was 1.72 %IA/g. The “Animal 1 (%IA/g) m: urine” value (Hg-197m) was 0.03 %IA/g and the “Animal 2 (%IA/g) m: bladder” value (Hg-197m) was 0.02 %IA/g.
